Source: ChEMBL document CHEMBL4739716, “Gpr139 receptor modulators” (2020)

Tests used:
[1] = target: T1, Probable G-protein coupled receptor 139 (Rattus norvegicus, UniProt P0C0W8); assay: Agonist activity at rat GPR139 expressed in CHO-K1 cells assessed as increase in calcium flux by calcium 5 dye based FLIPR assay; type: cell-based
T1 sequence (P0C0W8 whole entry): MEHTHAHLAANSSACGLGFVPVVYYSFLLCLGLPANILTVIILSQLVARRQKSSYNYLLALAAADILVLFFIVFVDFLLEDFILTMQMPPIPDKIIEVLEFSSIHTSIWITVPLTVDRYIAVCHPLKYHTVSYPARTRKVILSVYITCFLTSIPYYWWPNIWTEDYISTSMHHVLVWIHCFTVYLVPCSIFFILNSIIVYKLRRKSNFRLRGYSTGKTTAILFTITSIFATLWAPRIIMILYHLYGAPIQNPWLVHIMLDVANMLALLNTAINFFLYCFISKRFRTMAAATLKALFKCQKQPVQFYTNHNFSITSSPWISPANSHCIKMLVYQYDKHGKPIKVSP

[2] = target: T2, Probable G-protein coupled receptor 139 (Homo sapiens) (UniProt Q6DWJ6); assay: Agonist activity at human GPR139 expressed in CHO-K1 cells assessed as induction of beta-arrestin 2 recruitment incubated for 90 mins by PathHunter assay relative to JNJ63533054; type: cell-based
T2 sequence (whole entry): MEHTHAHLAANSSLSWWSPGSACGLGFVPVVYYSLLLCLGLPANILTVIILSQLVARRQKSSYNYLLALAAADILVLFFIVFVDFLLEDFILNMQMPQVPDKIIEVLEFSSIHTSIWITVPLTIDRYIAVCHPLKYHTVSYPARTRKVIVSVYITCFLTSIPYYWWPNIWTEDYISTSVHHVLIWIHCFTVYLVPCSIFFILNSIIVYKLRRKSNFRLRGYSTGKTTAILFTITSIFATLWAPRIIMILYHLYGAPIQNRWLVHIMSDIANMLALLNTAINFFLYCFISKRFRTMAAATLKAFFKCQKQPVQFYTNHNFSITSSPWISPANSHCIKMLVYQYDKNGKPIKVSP

[3] = target: T2, Probable G-protein coupled receptor 139 (Homo sapiens); assay: Agonist activity at human GPR139 expressed in CHO-K1 cells assessed as increase in calcium flux by calcium 5 dye based FLIPR assay relative to JNJ63533054; type: functional, cell-based; conditions: filed as agonist
[4] = target: T3, Probable G-protein coupled receptor 139 (Homo sapiens, UniProt Q6DWJ6); assay: Agonist activity at human GPR139 expressed in CHO-K1 cells assessed as increase in calcium flux by calcium 5 dye based FLIPR assay; type: functional, cell-based
T3 sequence (Q6DWJ6 whole entry): T2 sequence (whole entry)

[5] = target: T4, Probable G-protein coupled receptor 139 (Rattus norvegicus) (UniProt P0C0W8); assay: Agonist activity at rat GPR139 expressed in CHO-K1 cells assessed as increase in calcium flux by calcium 5 dye based FLIPR assay relative to JNJ63533054; type: cell-based
T4 sequence (whole entry): T1 sequence (P0C0W8 whole entry)

[6] = target: T3, Probable G-protein coupled receptor 139; assay: Agonist activity at human GPR139 expressed in CHO-K1 cells assessed as induction of beta-arrestin 2 recruitment incubated for 90 mins by PathHunter assay; type: cell-based

Structure (SMILES) | EC50 ([1]; cho-k1) | Emax ([2]; filed as agonist) | Emax [3] | EC50 [4] | Emax ([5]; filed as agonist) | EC50 [6] | EC50 ([6]; cho-k1) | EC50 ([4]; cho-k1) | Emax [2] | EC50 [1] | Emax [5]
C[C@H](NC(=O)Cn1nc2ncc(Cl)cn2c1=O)c1ccc(Cl)c(F)c1 | 1 nM | 50% | > 80% | < 1 nM | > 80% | ≥ 100 nM | – | – | – | – | –
COc1cccc2nn(CC(=O)N[C@@H](C)c3ccc(OC(F)(F)F)cc3)c(=O)n12 | 1 nM | > 80% | > 80% | < 1 nM | 50% | – | 1 nM | – | – | – | –
Cc1cc([C@H](C)NC(=O)Cn2nc3ccccn3c2=O)ccc1Cl | 1 nM | > 80% | > 80% | < 1 nM | > 80% | – | 1 nM | – | – | – | –
Cc1ccc([C@H](C)NC(=O)Cn2nc3ncccn3c2=O)cc1Cl | 10 nM | > 80% | > 80% | – | > 80% | ≥ 100 nM | – | 1 nM | – | – | –
COc1ccnn2c(=O)n(CC(=O)N[C@@H](C)c3ccc(Cl)c(F)c3)nc12 | – | > 80% | > 80% | < 1 nM | – | – | 1 nM | – | – | – | –
C[C@H](NC(=O)Cn1nc2cccc(N3CCCCC3)n2c1=O)c1ccc(OC(F)(F)F)cc1 | 1 nM | 50% | 50% | < 1 nM | 50% | < 1 nM | – | – | – | – | –
COc1cccc2nn(CC(=O)N[C@@H](C)c3ccc(C)cc3)c(=O)n12 | 1 nM | – | > 80% | < 1 nM | 50% | – | 1 nM | – | 25% | – | –
Cc1cc(Cl)ccc1[C@H](C)NC(=O)Cn1nc2ccccn2c1=O | 1 nM | > 80% | > 80% | – | 50% | – | 1 nM | 1 nM | – | – | –
C[C@H](NC(=O)[C@@H](C)n1nc2ncccn2c1=O)c1ccc(Cl)c(F)c1 | 1 nM | 50% | > 80% | – | 50% | – | 10 nM | 1 nM | – | – | –
Cc1cnn2c(=O)n(CC(=O)N[C@@H](C)c3ccc(OC(F)(F)F)cc3)nc2c1 | – | 50% | > 80% | – | 50% | ≥ 100 nM | – | 1 nM | – | ≥ 100 nM | –
C[C@H](NC(=O)Cn1nc2cc(N3CCOCC3)ccn2c1=O)c1ccc(OC(F)(F)F)cc1 | 1 nM | 50% | > 80% | – | > 80% | ≥ 100 nM | – | 1 nM | – | – | –
COc1ccc2nn(CC(=O)N[C@@H](C)c3ccc(Cl)c(F)c3)c(=O)n2n1 | 1 nM | 50% | > 80% | < 1 nM | 50% | < 1 nM | – | – | – | – | –
CC[C@H](NC(=O)Cn1nc2cccnn2c1=O)c1ccc(Cl)c(F)c1 | 1 nM | – | > 80% | – | > 80% | ≥ 100 nM | – | 1 nM | 25% | – | –
CC(NC(=O)Cn1nc2ccccn2c1=O)c1ncc(Cl)cc1F (stereo unspecified) | – | – | 50% | ≥ 100 nM | – | ≥ 100 nM | – | – | 25% | ≥ 100 nM | < 25%
C[C@H](NC(=O)Cn1nc2ncc(F)cn2c1=O)c1ccc(OC(F)(F)F)cc1 | – | – | > 80% | – | – | ≥ 100 nM | – | 1 nM | 25% | ≥ 100 nM | 25%
Cc1cnc2nn(CC(=O)N[C@@H](C)c3ccc(OC(F)(F)F)cc3)c(=O)n2c1 | – | – | 50% | – | – | ≥ 100 nM | – | 1 nM | 25% | ≥ 100 nM | 25%
CC(C(=O)N[C@@H](C)c1ccc(Cl)c(F)c1)n1nc2ccccn2c1=O (stereo in doubt; form 1) [listing 1 of 2 here] | – | > 80% | > 80% | – | 50% | – | – | – | – | – | –
C[C@H](NC(=O)Cn1nc2c(N3CCOCC3)ccnn2c1=O)c1ccc(Cl)c(F)c1 | – | > 80% | > 80% | < 1 nM | – | ≥ 100 nM | – | – | – | – | –
Cc1ccc([C@H](C)NC(=O)C(C)n2nc3ccccn3c2=O)cc1 (stereo in doubt; form 2) | – | > 80% | > 80% | – | > 80% | – | – | – | – | – | –
O=C(Cn1nc2cccnn2c1=O)N[C@H](c1ccc(Cl)c(F)c1)C1CC1 | – | – | 50% | – | – | ≥ 100 nM | – | 1 nM | < 25% | – | –
CC(C(=O)N[C@@H](C)c1ccc(Cl)c(F)c1)n1nc2ccccn2c1=O (stereo in doubt; form 1) [listing 2 of 2 here] | – | – | – | < 1 nM | – | < 1 nM | – | – | – | < 1 nM | –
